Assay results reported in US20260374739A1, “SMALL MOLECULAR WEIGHT CHEMICAL COMPOUND TO ANTAGONIZE EPH-EPHRIN TETRAMERIZATION AND INHIBIT BIDIRECTIONAL SIGNALING” (THE BOARD OF REGENTS OF THE UNIVERSITY OF TEXAS SYSTEM, priority 2022, published 2026).
Values joined by “and” are separate entries in the source; they are usually repeats but may differ in a detail not shown here. Equal values may be shown once. “Also recorded” adds a separate entry of the source.

Columns and labels:
EphrinB2-EphB2 [1] = molecular target: T1, EphrinB2-EphB2 (Homo sapiens, UniProt P29323); assay: Octet tetramerization inhibition, immobilized human EphrinB2 binding to 50 nM soluble human EphB2
T1 construct: soluble human EphB1-His, EphB2-His, and EphB4-His ectodomains; commercially available human EphrinB1-Fc (EB1), EphrinB2-Fc (EB2), and EphrinB3-Fc (EB3) ectodomain proteins; purchased
T1 sequence (P29323 19-543 limits assumed): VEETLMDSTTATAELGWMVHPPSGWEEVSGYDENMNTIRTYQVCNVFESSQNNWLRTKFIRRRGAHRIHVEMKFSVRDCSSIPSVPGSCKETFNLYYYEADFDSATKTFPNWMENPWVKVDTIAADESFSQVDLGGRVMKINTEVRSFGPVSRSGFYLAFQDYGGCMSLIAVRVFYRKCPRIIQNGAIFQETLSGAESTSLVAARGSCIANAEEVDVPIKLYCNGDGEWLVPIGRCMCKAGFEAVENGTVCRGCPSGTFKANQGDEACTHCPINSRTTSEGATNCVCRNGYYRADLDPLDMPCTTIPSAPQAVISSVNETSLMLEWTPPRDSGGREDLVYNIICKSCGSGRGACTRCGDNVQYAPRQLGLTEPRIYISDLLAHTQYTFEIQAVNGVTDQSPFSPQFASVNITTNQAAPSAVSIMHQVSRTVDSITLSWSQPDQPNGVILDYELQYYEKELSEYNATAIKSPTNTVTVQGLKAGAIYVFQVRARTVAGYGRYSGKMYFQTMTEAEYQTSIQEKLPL

EphrinB2-EphB1 = molecular target: T2, EphrinB2-EphB1 (Homo sapiens, UniProt P54762); assay: Octet 80 sec association/500 sec dissociation, immobilized human EphrinB2-Fc binding to soluble human EphB1-His; conditions: immobilized human EphrinB2, 25 nM soluble human EphB1
T2 construct: soluble human EphB1-His, EphB2-His, and EphB4-His ectodomains; commercially available human EphrinB1-Fc (EB1), EphrinB2-Fc (EB2), and EphrinB3-Fc (EB3) ectodomain proteins; purchased
T2 sequence (P54762 18-540 limits assumed): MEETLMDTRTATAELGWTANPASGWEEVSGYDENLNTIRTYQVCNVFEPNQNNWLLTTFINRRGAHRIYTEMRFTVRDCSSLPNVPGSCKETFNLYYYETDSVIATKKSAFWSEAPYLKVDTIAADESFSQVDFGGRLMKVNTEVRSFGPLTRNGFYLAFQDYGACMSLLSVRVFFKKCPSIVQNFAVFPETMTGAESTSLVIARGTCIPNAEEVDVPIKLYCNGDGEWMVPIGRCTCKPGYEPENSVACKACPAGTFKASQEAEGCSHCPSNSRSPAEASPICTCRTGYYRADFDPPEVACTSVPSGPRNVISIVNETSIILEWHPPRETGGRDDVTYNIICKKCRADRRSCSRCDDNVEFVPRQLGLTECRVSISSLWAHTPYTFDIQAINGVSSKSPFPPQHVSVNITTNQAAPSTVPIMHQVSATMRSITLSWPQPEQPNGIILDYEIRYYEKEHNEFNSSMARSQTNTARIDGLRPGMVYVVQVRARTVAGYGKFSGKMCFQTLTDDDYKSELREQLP
Experimental: (§1) In another experiment, whether certain A20 analogs might have specificity for different Eph receptors was tested. An Octet RED384 system was used to obtain biophysical ON-OFF binding data (association-dissociation) for the three different human EphrinB2-EphB1, EphrinB2-EphB2, and EphrinB2-EphB4 protein-protein interactions and to assess the effect of A20 chemicals on the binding kinetics.
(§2) FIGS. 72A-72C show three example Octet sensorgram response traces for the immobilized human EphrinB2 ectodomain protein binding to soluble forms of the human EphB1, EphB2, and EphB4 ectodomain proteins, in the absence or presence of an A20 chemical (buffer conditions are always PBSTD:PBS with 0.05% Tween-20, 1% DMSO, and +/− indicated chemical). After loading EphrinB2-Fc protein to Octet AHC biosensors, washing, and obtaining stable baseline measurements in the appropriate PBSTD (either with or without indicated chemical), the sensors are placed in its buffer that also contains the indicated soluble EphB protein for the association step (0-80″), and then returned to its buffer for the dissociation step (81″-580″). In each figure (FIGS. 72A-72C), a sensorgram run using 10 μM of the 2×HCl salt form of A20-I is compared to the no compound control run to exemplify the maximum level of reduced response signal typically obtained with a potent A20 chemical.
(§3) Because the response levels during the dissociation step plateau for the EphrinB2-EphB2 and EphrinB2-EphB1 interactions by the first 80″, AUCs were also calculated for run data encompassing the first 160″ of each experiment to account for both the 80″ association data (red asterisks) and the first 80″ of dissociation data (marked by green line and asterisks).
(§4) The selectivity of another A20 analog (a 3×HCL salt form of compound BQPB4) in comparison to previously tested compound, A20-1, was tested as described in Example 27 above.
(§5) Further to the experiments listed above, a series of dose-response experiments were conducted to determine the IC50 of a selected A20 chemical (A20-1) on the kinetics of human EphrinB2 ligand ectodomain protein binding to its cognate human EphB1, EphB2, and EphB4 receptor ectodomain proteins. FIG. 74A-74C are representative sensorgrams showing the effect of 0, 0.1, 0.2, 0.4, 0.8, 1.6, and 3.2 μM, concentrations of the 2×HCl salt of A20-I along with a 10 μM max standard (also A20-1) on three different Ephrin-EphB interactions (e.g., EphB1 in FIG. 74A, EphB2 in FIG. 74B and EphB4 in FIG. 74C). […] Additional IC50 values were determined at specific timepoints, at 75″ into the association step and at 55″ into the dissociation step (135″).
(§6) All absolute and relative IC50 values are provided in the Table 6 below, where absolute are based off the full binding sensorgram traces, and relative are based off of the max control traces.
(§7) In another experiment, the % inhibition for various A20 analog chemicals against the three different EphrinB2-EphB protein interactions was determined. Specifically, the percent inhibition for immobilized human EphrinB2-Fc binding to 25 nM soluble human EphB1-His (FIG. 76A, enlarged in FIG. 76D), EphB2-His (FIG. 76B, enlarged in FIG. 76E), and EphB4-His (FIG. 76C, enlarged in FIG. 76F) with 3511-I, 8009-9255, QTM-Br, A19, A19-NO2, and IM (all at 3.2 μM) was determined.

EphrinB2-EphB2 [2] = molecular target: T1, EphrinB2-EphB2; assay: Octet 80 sec association/500 sec dissociation, immobilized human EphrinB2-Fc binding to soluble human EphB2-His; conditions: immobilized human EphrinB2, 25 nM soluble human EphB2
Experimental: as §1, §2, §3, §4, §5, §6, §7

[3] = Absolute AUC/IC50, Table A, EphrinB2-EphB2
[4] = Absolute Association IC50 (300 sec), Table A, EphrinB2-EphB2
[5] = Absolute Dissociation IC50 (450 sec), Table A, EphrinB2-EphB2
[6] = Relative Association IC50 (300 sec), Table A, EphrinB2-EphB2
[7] = Relative Dissociation IC50 (450 sec), Table A, EphrinB2-EphB2
[8] = tetramerization inhibitor IC50 (relative), association step, surmountable tetramer
[9] = Relative AUC/IC50, Table A, EphrinB2-EphB2, compound 7: association only

SMILES: COc1ccc(N2CCN(Cc3cc(Br)c(O)c4ncccc34)CC2)cc1 [Compound 73]
- IC50 (EphrinB2-EphB2 [1]; [3]): 2.29 µM
- IC50 (EphrinB2-EphB2 [1]; [4]): 2.51 µM
- IC50 (EphrinB2-EphB2 [1]; [5]): 1.51 µM
- IC50 (EphrinB2-EphB2 [1]; [6]): 1.2 µM
- IC50 (EphrinB2-EphB2 [1]; [7]): 1.07 µM

SMILES: O=[N+]([O-])c1ccc(N2CCN(Cc3ccc(O)c4ncccc34)CC2)cc1 [Compound 37, 5-((4-(4-nitrophenyl)piperazin-1-yl)methyl)quinolin-8-ol]
- disruption of unsurmountable tetramer (EphrinB2-EphB2 [1]; 0.8-3.2 μM, listed as QPB-NO4): slight ability to disrupt the unsurmountable tetramer; also recorded: able to inhibit a small amount of the EphrinB2-EphB2 unsurmountable tetramer
- IC50 (EphrinB2-EphB2 [1]; [8]): ~1.6 µM

SMILES: CC(=O)Nc1ccc(N2CCN(Cc3ccc(O)c4ncccc34)CC2)cc1 [Compound 50, N-(4-(4-((8-hydroxyquinolin-5-yl)methyl)piperazin-1-yl)phenyl)acetamide]
- IC50 (EphrinB2-EphB2 [1]; [3]): > 3.2 µM
- IC50 (EphrinB2-EphB2 [1]; [4]): > 3.2 µM
- IC50 (EphrinB2-EphB2 [1]; [5]): > 3.2 µM
- IC50 (EphrinB2-EphB2 [1]; [6]): 2.77 µM
- IC50 (EphrinB2-EphB2 [1]; [7]): 1.95 µM
- IC50 (EphrinB2-EphB2 [1]; [8]): > 3 µM

SMILES: Oc1ccc(CN2CCN(Cc3ccc(Br)cc3)CC2)c2cccnc12 [Compound 43, 5-((4-(4-bromobenzyl)piperazin-1-ium-1-yl)methyl)-8-hydroxyquinolin-1-ium chloride]
- EphB1 Inhibition Percent, Inhibition of Association ONLY (EphrinB2-EphB1; at 3.2 μM and 80 seconds): 19.9% and 33.5%
- EphB1 Inhibition Percent, Inhibition of Association-Dissociation (EphrinB2-EphB1; at 3.2 μM and 580 seconds): 36.5% and 47.3%
- EphB2 Inhibition Percent, Inhibition of Association ONLY (EphrinB2-EphB2 [2]; at 3.2 μM and 80 seconds): 37.8% and 62.3%
- EphB2 Inhibition Percent, Inhibition of Association-Dissociation (EphrinB2-EphB2 [2]; at 3.2 μM and 580 seconds): 56.3% and 75.4%
- IC50 (EphrinB2-EphB2 [1]; [3]): 3.09 µM and 3.24 µM
- IC50 (EphrinB2-EphB2 [1]; [4]): 2.7 µM and 2.75 µM
- IC50 (EphrinB2-EphB2 [1]; [5]): 2.82 µM and 3.01 µM
- IC50 (EphrinB2-EphB2 [1]; [9]): 2.24 µM
- IC50 (EphrinB2-EphB2 [1]; [6]): 1.95 µM
- IC50 (EphrinB2-EphB2 [1]; [7]): 2.34 µM and 2.14 µM

SMILES: Cc1ccc2c(CN3CCN(c4ccc(Br)cc4)CC3)ccc(O)c2n1 [Compound 60, 5-((4-(4-bromophenyl)piperazin-1-yl)methyl)-2-methylquinolin-8-ol]
- tetramerization inhibitor activity (EphrinB2-EphB2 [1]): appears to eliminate tetramerization inhibitor activity
- IC50 (EphrinB2-EphB2 [1]; [3]): > 3.2 µM
- IC50 (EphrinB2-EphB2 [1]; [4]): > 3.2 µM
- IC50 (EphrinB2-EphB2 [1]; [5]): > 3.2 µM
- IC50 (EphrinB2-EphB2 [1]; [9]): > 3.2 µM
- IC50 (EphrinB2-EphB2 [1]; [6]): > 3.2 µM
- IC50 (EphrinB2-EphB2 [1]; [7]): > 3.2 µM

SMILES: O=S1(=O)CCN(Cc2cc(I)c(O)c3ncccc23)CC1 [Compound 18, 4-((8-hydroxy-7-iodoquinolin-5-yl)methyl)thiomorpholine 1,1-dioxide]
- IC50 (EphrinB2-EphB2 [1]; [8]): ~0.8 µM
